Row | melting point [°C] | Structure (SMILES)
1 | > 255 | COc1cc2c(O)nc(O)nc2c(OC)c1OC
2 | 196 to 197 | O=C(CCl)Nc1ccc(OCc2nc3ccccc3s2)cc1
3 | 87 to 90 | CCCCCCCCNc1ccc(-c2cc3ccccc3o2)cc1
4 | 173 to 174 | CC(C)NCC(O)COc1ccc2c(=O)cc(-c3cc(OCc4ccccc4)cc(OCc4ccccc4)c3)oc2c1 (centres undefined)
5 | 172 to 175 | COC1(OC)CC(c2ccccc2)N(O)C(c2ccccc2)C1 (centres undefined)
6 | 232 to 233 | Cc1sc(-c2ccc(C(F)(F)F)cc2)nc1O
7 | 137 to 138 | COC(=O)c1cc(C)sc1S(N)(=O)=O
8 | 196 to 199 | O=c1[nH]c2ccccc2cc1CC1CCc2ccccc2N1 (centres undefined)
9 | 269 to 271 | O=C1OC(=O)c2c3ccccc3c(Cl)c3cccc1c23
10 | 258 to 260 | O=C(O)COc1ccc2cc(-c3cnc(Cc4ccc5ccccc5c4)o3)ccc2c1
11 | 136 to 138 | CC(C)(C(=O)N(O)Cc1ccccc1Cl)C(Cl)Cl
12 | 149 | CCOC(=O)c1c(-c2cccc(Cl)c2)c2cc(C(c3nc(-c4ccccc4)cs3)n3ccnc3-c3ccccc3)ccc2[nH]c1=O (centres undefined)
13 | 98 to 99 | CC(C)(CCCC(C(O)C(C)(C)C)n1cncn1)c1ccccc1 (centres undefined)
14 | 85.5 | C=C(Cl)CC(C#N)(C#N)Cc1ccc(Cl)cc1
15 | 168 to 170 | O=C1Nc2ccc(Oc3cc(F)c(C(F)(F)F)c(Cl)c3)cc2C12CC2
16 | 236 to 238 | NC(=S)Nc1ccc(C2=NNC(=O)Cc3cc4c(cc32)OCO4)cc1
17 | 97 to 98 | CN(C)c1ccc([N+](=O)[O-])c(CN)c1
18 | 199 to 201 | CS(=O)(=O)c1ccc(-c2cnn(-c3ccc(F)cc3)c(=O)c2-c2cccc(F)c2)cc1

Row | melting point [°C] | Structure (SMILES)
19 | 210 | COc1ccc(N2CCOCC2)c2sc(C(=O)NCC(=O)c3csc4ccccc34)nc12
20 | 106 to 110 | O=C(CO[C@H]1Cc2c(cccc2OCc2ccccc2)C[C@H]1OCC(=O)N1CCOCC1)N1CCOCC1 (relative stereo)
21 | 103 to 105 | Cc1nn(C)cc1C(=O)NC1=C(c2ccc(Cl)cc2)CCC1
22 | 130 to 131 | CCCC(=O)c1ccc(-c2ncccc2S(=O)(=O)Nc2ncc(C)nc2OC)cc1
23 | 156 to 164 | CS(=O)(=O)NNc1ccnc2c(NC(=O)c3c(Cl)cccc3Cl)cccc12
24 | 211 to 213 | Cc1ccc(C2c3[nH]c4ccccc4c3CCN2C(=O)C=Cc2cc([N+](=O)[O-])ccc2Cl)cc1 (centres undefined)
25 | 148 | O=C(O)Cc1cc(C(=O)c2ccccc2Cl)ccc1O
26 | 37 to 38 | CCCCCCCNC(=O)c1ccc(CCCC)cc1
27 | 113 | CCCCN1CCC(CNC(=O)c2ccc(N)n3cc(Cl)nc23)CC1
28 | 259 to 261 | O=C1c2[nH]c3cc(Cl)ccc3c2Oc2ccccc2N1Cc1ccccc1
29 | 146 to 148 | CN(C(=O)c1ccc(Cn2ncc3ccccc32)cc1)C1CCNCC1
30 | 153 to 156 | O=C(NNS(=O)(=O)c1ccccc1)c1ccnc2ccccc12
31 | 136 to 138 | O=C(O)C(CC1CCCC1)c1ccc(-c2cccnc2)cc1 (centres undefined)
32 | 168 to 170 | c1ccc(COc2ccc3[nH]c(-c4ccccc4)cc3c2)cc1
33 | 123 to 124 | CN(C)CCOC(=O)C1CCc2c([nH]c3ccc(Cl)cc23)C1 (centres undefined)
34 | 100 to 105 | CCNc1nc(SC)ncc1CNc1cc(OC)cc(OC)c1
35 | 91 to 92 | CCOCOC(CCC(C(=O)NC)C(C)C(O)c1ccccc1)c1ccc(F)cc1 (centres undefined)
36 | 127 to 129 | COc1cc(=O)n(-c2cccc(C(F)(F)F)c2)nc1C(=O)N(C)OC

Row | Structure (SMILES) | melting point [°C]
37 | CN(Cc1ccc2c(Br)c(O)ccc2c1)C(=O)c1cn(Cc2ccccc2)c2ccccc12 | 181 to 182
38 | N#Cc1c(CCl)[nH]c(=O)[nH]c1=O | 229
39 | CC(=O)NC(=N[N+](=O)[O-])NCc1ccc(Cl)nc1 | 125 to 126
